# In patent US20230165817A1, “DOPAMINERGIC MIMETICS” (TDELTAS LIMITED, priority 2004, published 2023):
# How the values were obtained:
# [1] = tested on: electrical power of four rat brain areas (frontal cortex, hippocampus, striatum, reticular formation); conditions: literature (Dimpfel et al., 1987; Dimpfel, 2003); cited from earlier work
# [2] = tested on: electrical power of four rat brain areas (frontal cortex, hippocampus, striatum, reticular formation); assay: EEG measurements (Tele-Stereo-EEG) in freely-moving rats after single intraperitoneal injection; assay type: in vivo, Fisher rats
# From the text: Analysis of brain field potentials (“Tele-Stereo-EEG”) has been proven to be a very sensitive tool for the characterization of drug effects on the central nervous system (Dimpfel et al., 1986). After administration of a centrally active drug, quantitative changes in the brain field potentials can be considered as a characteristic fingerprint of that particular drug. “Fingerprints” of more than 100 compounds have been obtained including 8 established drug categories, e.g. stimulants, sedatives, hallucinogenics, tranquilizers, analgesics, antidepressants, neuroleptics, and narcotics. Different dosages of the same drug cause quantitative changes in electrical power. […] Direct comparison with specific reference drugs, or by discriminant analysis with reference to an extensive fingerprint database, permits the detection of any possible similarities with established drugs. In general, “fingerprints” show prominent differences for drugs prescribed for different indications and are similar for drugs with similar indication (Dimpfel, 2003). Furthermore, the pattern of EEG changes in the rat is a useful tool in predicting possible changes in the EEG power spectrum in humans.
# Adult Fisher rats (4-6 month of age and day-night converted, bodyweight approximately 400 g) were implanted with 4 bipolar concentric steel electrodes using a stereotaxic surgical procedure. According to the coordinates of Paxinos and Watson (1982), all four electrodes were placed 3 mm lateral within the left hemisphere. Anterior coordinates were 12.2, 5.7, 9.7 and 3.7 mm for frontal cortex, hippocampus, striatum and reticular formation, respectively. A baseplate carrying the electrodes and a 5-pin-plug was fixed to the skull by dental cement attached to 3 steel screws fixed into the skull. Animals were given two weeks for recovery from the surgical procedure.
# EEG signals were recorded from frontal cortex, hippocampus, striatum and reticular formation and were amplified and processed as described by Dimpfel et al. (1986). After automatic artefact rejection, signals were collected in sweeps of 4 s duration and submitted to Fast Fourier transformation. The resulting electrical power spectra were divided into 6 frequency ranges: delta (0.8-4.5 Hz); theta (4.75-6.75 Hz); alpha1 (7.00-9.50 Hz); alpha2 (9.75-12.50 Hz); beta (12.75-18.50 Hz); beta2 (18.75-35.00 Hz). […] In an off-line procedure spectra were averaged to give 15 minute or longer periods for further statistical analysis.
# Four doses of KTX 0101 (sodium (R)-3-hydroxybuytrate: 100, 300, 600 and 1000 mg/kg body weight) (supplied by Solvias AG, CH 4002 Basel, Switzerland, batch No: SO-1058.047.1.120) and a vehicle control (0.9% w/v saline) were administered intraperitoneally to a group of 12 animals using a crossover design with at least 3 drug holidays in between the applications. After a pre-drug period of 45 minutes for baseline recording, drug effects were observed continuously for 300 minutes. Changes of electrical power (μV2/W) are expressed as percentage of the 45 minute pre-drug values. Multivariate statistics were calculated according to Ahrens and Läuter (1974).
# [3] = Plasma determination of acetoacetate after intraperitoneal injection; assay type: in vivo, Sprague-Dawley rats; conditions: 30 min after dosing, rat
# Method: (§1) One hundred and seventy-one male Sprague-Dawley rats (weight range 200-250 g) housed on a standard […] were used. Animals had free access to a standard pelleted rat diet and tap water at all times. KTX 0101 (sodium (R)-3-hydroxybuytrate; 100, 300, 600 and 1000 mg/kg body weight) supplied by Sigma (H6501, Lot 111K2618) was administered by intraperitoneal injection. Control animals received the appropriate 0.9% saline vehicle via the same route. Animals were killed by CO2 asphyxiation 0 h, 0.5 h, 1.0 h or 2.0 h after dosing and a terminal blood sample was collected by cardiac puncture. Blood was taken in lithium heparinised tubes and kept on ice prior to centrifugation to yield the plasma samples for analysis.
# The assay developed for the determination of acetoacetate was based on previously published clinical assays (Li et al, 1980; McMurray et al, 1984). A different assay buffer was prepared (0.1M Na2PO4 adjusted to pH 7.0 with HCl) in order to shift the equilibrium of the reaction to production of β hydroxybutyrate and NAD+. Other modifications included the additional use of sodium oxalate at a final assay concentration of 20 mM to inhibit lactate dehydrogenase (LDH) present in the plasma samples. […]
# Acetoacetate was measured via the reduction in OD340 nm over a 1 minute period after allowing for the reaction rate to settle.
# [4] = Plasma determination of (R)-3-hydroxybutyrate after intraperitoneal injection; assay type: in vivo, Sprague-Dawley rats; conditions: rat
# Method: as §1
# Commercial clinical assay kits for the determination of D-β-hydroxybutyrate were obtained from Randox Laboratories (Antrim, UK). The kit quantified NADH via the activity of β-hydroxybutyrate dehydrogenase measured as an increase in OD340 nm. An alkaline pH is necessary to drive the reaction equilibrium towards the production of NADH and acetoacetate.
# This spectrophotometric assay was modified for application to a 96 well microplate format. The reaction rate was then determined from the increase in OD340 nm over a 1 minute time course, after allowing a necessary period for the reaction rate to settle.
structure (smiles),measurement,setting,value
N[C@@H](Cc1ccc(O)c(O)c1)C(=O)O [L-DOPA],EEG frequency changes of drugs enhancing dopaminergic function,[1],"decrease delta, theta and alpha2 frequencies"
Oc1cc2c(cc1O)C(c1ccccc1)CNCC2 (stereo not shown) [SKF 38393],EEG frequency changes of drugs enhancing dopaminergic function,[1],"decrease delta, theta and alpha2 frequencies"
"C[C@@H](O)CC(=O)[O-].[Na+] [KTX 0101, sodium (R)-3-hydroxybuytrate]",Duration of EEG effects,"[2]; 100 mg/kg body weight ip, rat",1 to 2 h
same,Statistical significance of EEG changes,"[2]; 100 mg/kg body weight ip, rat",not statistically significant
same,Changes in EEG power spectrum (frequency changes),"[2]; 100 mg/kg body weight ip, rat, vs pre-drug values",decrease of electrical power mainly with regard to alpha2
same,Duration of EEG pattern of changes,"[2]; 300 mg/kg ip, rat",2 h
same,Statistical significance of EEG changes,"[2]; 300 mg/kg ip, rat",only statistically significant in the reticular formation
same,Changes in EEG power spectrum (frequency changes),"[2]; 300 mg/kg ip, rat, vs pre-drug values",decreases in alpha2 power throughout all brain regions
same,Duration of EEG effects,"[2]; 600 mg/kg ip, rat, brain regions except reticular formation",~2 h
same,Statistical significance of EEG changes,"[2]; 600 mg/kg ip, rat, including first hour within striatum and all 24 variables",statistically significant
same,Duration of decreases in EEG power in the reticular formation,"[2]; 600 mg/kg ip, rat, reticular formation",persisted throughout the third hour
same,Changes in EEG power spectrum (frequency changes),"[2]; 1000 mg/kg ip, rat","identical pattern of change, but with more prominent decreases of power"
same,Duration of decreases of EEG power,"[2]; 1000 mg/kg ip, rat",lasting into the third hour
same,Statistical significance of EEG changes,"[2]; 1000 mg/kg ip, rat, even for the 4th hour within the reticular formation",statistically significant
same,Duration of decreases of EEG power in the reticular formation,"[2]; 1000 mg/kg ip, rat, reticular formation, total experimental time",5 h
same,Similarity of qEEG fingerprint to drug classes by discriminant analysis,"[2]; 24 variables, 20th to 50th min after single-dose application, rat","close proximity to the dopamine reuptake inhibitor, cocaine and the dopamine releasing agent, d-amphetamine"
same,Period of greatest changes in EEG patterns,"[2]; after ip injection, rat",5 to 65 min
same,"EEG changes, summary over dose range","[2]; dose range 300 to 1000 mg/kg ip, rat","clear, dose- and time-dependent statistically significant changes"
same,Specific EEG frequencies changed,"[2]; rat, ip","decrease the delta, theta and alpha2 EEG frequencies"
same,"EEG power spectrum changes, dose dependence","[2]; single ip injection, range 100 to 1000 mg/kg, freely-moving rats","clear, dose-dependent changes in the EEG power spectrum"
same,Plasma concentration of acetoacetate,[3]; 600 mg/kg ip,significantly increased
same,Plasma concentration of acetoacetate,[3]; 1000 mg/kg ip,significantly increased
same,Plasma concentration of (R)-3-hydroxybutyrate,"[4]; 100, 300, 600 and 1000 mg/kg ip",clear dose-dependent increases
same,Time at which plasma (R)-3-hydroxybutyrate had returned to control values,"[4]; 100-1000 mg/kg ip, after injection",≤ 1 h
same,Time of highest elevations in plasma (R)-3-hydroxybutyrate,"[4]; 100-1000 mg/kg ip, first sample",30 min
